For 18 compounds, T/C results are on record in PubChem BioAssay AID330 (DTP/NCI, 2004).

Structures are written as SMILES. Values joined by “and” are separate entries in the source; they are usually repeats but may differ in a detail not shown here. Identical values can stand only once. Toxic doses and inconclusive results are not listed. Numbered stars: 1 amine (or outer) side, 2 acyl side, 3 side chain; on linkers, the order of the positions; unused ones are H or OH. Bridge positions count the residues as written; N and C are the ends. Square brackets hold non-standard residues; d marks the D form. Peptide text beside a SMILES is read from it. I, II: the chains in the order shown. Actinocin(9to1) = Cc1c2oc3c(C)ccc(C(=O)[*:1])c3nc-2c(C(=O)[*:2])c(N)c1=O; NMeV = CN[CH](C(=O)O)C(C)C; Sar = CNCC(=O)O

In this experiment the test system is P388 leukemia ip, CD2F1 mice, survival T/C. As to the kind of experiment: NCI In Vivo Anticancer Drug Screen. Data for tumor model P388 Leukemia (intraperitoneal) in CD2F1 (CDF1) mice. Conditions: endpoint: median survival time, higher = longer survival. In short, it runs like this:
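Mice carrying the transplanted tumor received test compound or vehicle. Survival was recorded in each group, and the value is the treated-group measurement divided by that of the vehicle-treated control group.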

The mark [1] stands for this setting: dose: 100.0 mg/kg/injection, schedule: Q04DX002 (ip), vehicle: saline with Tween-80.
Where [2] appears, read: dose: 200.0 mg/kg/injection, schedule: Q04DX002 (ip), vehicle: saline with Tween-80.
[3] abbreviates: dose: 50.0 mg/kg/injection, schedule: Q01DX009 (ip), vehicle: Klucel (hydroxypropylcellulose) (HPC).
Setting [4] is: dose: 100.0 mg/kg/injection, schedule: Q01DX009 (ip), vehicle: Klucel (hydroxypropylcellulose) (HPC).
Where [5] appears, read: dose: 200.0 mg/kg/injection, schedule: Q01DX009 (ip), vehicle: Klucel (hydroxypropylcellulose) (HPC).
The mark [6] stands for this setting: dose: 6.25 mg/kg/injection, schedule: Q01DX009 (ip), vehicle: saline with Tween-80.
The mark [7] stands for this setting: dose: 12.5 mg/kg/injection, schedule: Q01DX009 (ip), vehicle: saline with Tween-80.
[8] abbreviates: dose: 25.0 mg/kg/injection, schedule: Q01DX009 (ip), vehicle: saline with Tween-80.
Where [9] appears, read: dose: 50.0 mg/kg/injection, schedule: Q01DX005 (ip), vehicle: saline with Tween-80.
Setting [10] is: dose: 100.0 mg/kg/injection, schedule: Q01DX005 (ip), vehicle: saline with Tween-80.
Where [11] appears, read: dose: 200.0 mg/kg/injection, schedule: Q01DX005 (ip), vehicle: saline with Tween-80.
[12] abbreviates: dose: 60.0 mg/kg/injection, schedule: Q01DX005 (ip), vehicle: Klucel (hydroxypropylcellulose) (HPC).
The mark [13] stands for this setting: dose: 240.0 mg/kg/injection, schedule: Q01DX005 (ip), vehicle: Klucel (hydroxypropylcellulose) (HPC).

Take `Cc1c2oc3c(C)ccc(C(=O)NC4C(=O)NC(C(C)C)C(=O)N(C)CC(=O)N(C)CC(=O)N(C)C(C(C)C)C(=O)OC4C)c3nc-2c(C(=O)NC2C(=O)NC(C(C)C)C(=O)N(C)CC(=O)N(C)CC(=O)N(C)C(C(C)C)C(=O)OC2C)c(N)c1=O` (stereo not drawn) (I: TV[Sar][Sar][NMeV] / II: TV[Sar][Sar][NMeV]; ester I:1-I:C, II:1-II:C; linker I:N-II:N via Actinocin(9to1); configuration not given here): the T/C (dose: 0.1 mg/kg/injection, schedule: Q01DX009 (ip), vehicle: water) was 164 % of control; the T/C (dose: 0.18 mg/kg/injection, schedule: Q01DX009 (ip), vehicle: other) was 166 % of control; the T/C (dose: 0.2 mg/kg/injection, schedule: Q01DX009 (ip), vehicle: water) is 166 % of control; the T/C (dose: 0.27 mg/kg/injection, schedule: Q01DX009 (ip), vehicle: other) is 202 % of control; the T/C (dose: 0.4 mg/kg/injection, schedule: Q01DX009 (ip), vehicle: other) was 200 % of control; the T/C (dose: 0.4 mg/kg/injection, schedule: Q01DX009 (ip), vehicle: water) is 205 % of control. For the same compound, the T/C (dose: 0.6 mg/kg/injection, schedule: Q01DX009 (ip), vehicle: other) was 270 % of control; the T/C (dose: 0.8 mg/kg/injection, schedule: Q01DX009 (ip), vehicle: water) was 156 % of control; the T/C (dose: 1.6 mg/kg/injection, schedule: Q01DX009 (ip), vehicle: water) was 88 % of control.

`COc1ccc(C2CC(c3cc(C)cc(Br)c3O)=NO2)cc1` (stereo not drawn): the T/C by setting is: under setting [1], 93 % of control; under setting [2], 88 % of control; (dose: 400.0 mg/kg/injection, schedule: Q04DX002 (ip), vehicle: saline with Tween-80) 92 % of control.

For `C/C=C(\C)C(=O)OC1C2C(C)=CC(O)C(O)C2(C)C2C3(O)OCC24C(CC(=O)OC14)C(C)C3O` (stereo not drawn), the T/C reads like this: (dose: 0.25 mg/kg/injection, schedule: Q01DX009 (ip), vehicle: Klucel (hydroxypropylcellulose) (HPC)) 109 % of control; (dose: 0.5 mg/kg/injection, schedule: Q01DX009 (ip), vehicle: Klucel (hydroxypropylcellulose) (HPC)) 101 % of control; (dose: 1.0 mg/kg/injection, schedule: Q01DX009 (ip), vehicle: Klucel (hydroxypropylcellulose) (HPC)) 104 % of control; (dose: 2.0 mg/kg/injection, schedule: Q01DX009 (ip), vehicle: Klucel (hydroxypropylcellulose) (HPC)) 104 % of control.

For the compound `C=CCNc1nc2c(s1)c1c(O)c3c(O)c(C)c4c(c32)C(=O)C(C)(O/C=C\C(OC)C(C)C(OC(C)=O)C(C)C(O)C(C)C(O)C(C)/C=C/C=C(/C)C(=O)N1)O4` (stereo not drawn), the T/C (dose: 25.0 mg/kg/injection, schedule: Q01DX009 (ip), vehicle: Klucel (hydroxypropylcellulose) (HPC)) is 98 % of control; the T/C under setting [3] is 100 % of control; the T/C under setting [4] was 100 % of control; the T/C under setting [5] is 94 % of control.

Take `O=C1c2ccccc2C(=Cc2cccnc2)c2ccccc21`: the T/C runs as follows: under setting [6], 94 % of control; under setting [7], 105 % of control; under setting [8], 102 % of control; (dose: 50.0 mg/kg/injection, schedule: Q01DX009 (ip), vehicle: saline with Tween-80) 91 % of control.

For `[Cu+2].[NH-]C(Cc1cnc[nH]1)C(=O)O.[NH-]CC(=O)O` (stereo not drawn), the T/C by setting is: (dose: 6.25 mg/kg/injection, schedule: Q01DX009 (ip), vehicle: saline) 97 % of control; (dose: 12.5 mg/kg/injection, schedule: Q01DX009 (ip), vehicle: saline) 93 % of control and 95 % of control; (dose: 25.0 mg/kg/injection, schedule: Q01DX009 (ip), vehicle: saline) 97 % of control.

As to `Nc1nnc(SCc2ccccc2)s1`, the T/C is 102 % of control (dose: 3.13 mg/kg/injection, schedule: Q01DX009 (ip), vehicle: saline with Tween-80); 104 % of control under setting [6]; 109 % of control under setting [7]; 103 % of control under setting [8].

Consider `O=[N+]([O-])c1c(-c2ccccc2)csc1SSc1scc(-c2ccccc2)c1[N+](=O)[O-]`, for which the T/C runs as follows: (dose: 100.0 mg/kg/injection, schedule: Q04DX003 (ip), vehicle: saline with Tween-80) 103 % of control; (dose: 200.0 mg/kg/injection, schedule: Q04DX003 (ip), vehicle: saline with Tween-80) 96 % of control; (dose: 400.0 mg/kg/injection, schedule: Q04DX003 (ip), vehicle: saline with Tween-80) 100 % of control.

`Cc1nn(-c2ccccc2)c2c1C(c1ccc([N+](=O)[O-])cc1)C(C#N)=C(N)O2` (stereo not drawn): the T/C under setting [3] is 102 % of control, the T/C under setting [4] is 90 % of control and the T/C under setting [5] is 107 % of control.

`CCCCCCCCCC(C)(C)NP(=S)(OCC)OCC` (tested in a mixture with another compound): the T/C was 105 % of control under setting [3], 105 % of control under setting [4] and 100 % of control under setting [5].

Regarding `O=C(O)/C=C(\F)C(=O)O`, the T/C reads like this: (dose: 12.5 mg/kg/injection, schedule: Q01DX005 (ip), vehicle: saline) 97 % of control and 94 % of control; (dose: 25.0 mg/kg/injection, schedule: Q01DX005 (ip), vehicle: saline) 100 % of control and 96 % of control; (dose: 50.0 mg/kg/injection, schedule: Q01DX005 (ip), vehicle: saline) 100 % of control and 107 % of control; (dose: 100.0 mg/kg/injection, schedule: Q01DX005 (ip), vehicle: saline) 92 % of control and 97 % of control; (dose: 200.0 mg/kg/injection, schedule: Q01DX005 (ip), vehicle: saline) 97 % of control.

For `COC1(c2ccccc2)C2CCCCC2C2CCCCC21` (stereo not drawn), the T/C under setting [9] was 100 % of control, the T/C under setting [10] is 98 % of control and the T/C under setting [11] is 100 % of control.

In the case of `CCOC(=O)c1ccc(NC(=O)Nc2ccccc2OC)cc1`, the T/C reads like this: (dose: 3.75 mg/kg/injection, schedule: Q01DX005 (ip), vehicle: Klucel (hydroxypropylcellulose) (HPC)) 94 % of control; (dose: 7.5 mg/kg/injection, schedule: Q01DX005 (ip), vehicle: Klucel (hydroxypropylcellulose) (HPC)) 97 % of control; (dose: 15.0 mg/kg/injection, schedule: Q01DX005 (ip), vehicle: Klucel (hydroxypropylcellulose) (HPC)) 92 % of control; under setting [12], 88 % of control; under setting [13], 86 % of control.

As for `COc1cc(C[C@H]2CC(=O)O[C@@H]2CO)cc(OC)c1OC`, the T/C is 101 % of control (dose: 50.0 mg/kg/injection, schedule: Q04DX002 (ip), vehicle: saline with Tween-80); 99 % of control under setting [1]; 96 % of control under setting [2].

As for `Cc1ccc(/C=N/N)s1`, the T/C by setting is: (dose: 50.0 mg/kg/injection, schedule: Q04DX003 (ip), vehicle: other) 90 % of control; (dose: 100.0 mg/kg/injection, schedule: Q04DX003 (ip), vehicle: other) 100 % of control; (dose: 200.0 mg/kg/injection, schedule: Q04DX003 (ip), vehicle: other) 100 % of control.

In the case of `CCn1c(Cl)c(/C=N\Nc2cccc([N+](=O)[O-])c2)c2ccccc21`, the T/C by setting is: (dose: 25.0 mg/kg/injection, schedule: Q01DX001 (ip), vehicle: Klucel (hydroxypropylcellulose) (HPC)) 93 % of control; (dose: 50.0 mg/kg/injection, schedule: Q01DX001 (ip), vehicle: Klucel (hydroxypropylcellulose) (HPC)) 87 % of control; (dose: 100.0 mg/kg/injection, schedule: Q01DX001 (ip), vehicle: Klucel (hydroxypropylcellulose) (HPC)) 86 % of control and 93 % of control.

In the case of `CCC1(O)C(=O)Nc2ccc(OC)cc2C1=O` (stereo not drawn), the T/C was 97 % of control under setting [12]; 93 % of control (dose: 120.0 mg/kg/injection, schedule: Q01DX005 (ip), vehicle: Klucel (hydroxypropylcellulose) (HPC)); 93 % of control under setting [13].

Consider `CNN(C)P(=S)(Oc1ccccc1)N(C)NC`, for which the T/C by setting is: under setting [9], 101 % of control; under setting [10], 103 % of control; under setting [11], 102 % of control.
